Laboratory results as given in BindingDB's records for doi:10.1021/bi3002067 (The University of Auckland, 2012).

Target: Salicylate synthase (Mycobacterium tuberculosis (strain CDC 1551 / Oshkosh), UniProt P9WFX0)
Experiment: Fluorescence-Based Thermal Shift Assay
Description: The thermal stability of MbtI in the absence and presence of inhibitors was measured using a fluorescence-based thermal shift assay.

Chain of Salicylate synthase (P9WFX0 whole entry): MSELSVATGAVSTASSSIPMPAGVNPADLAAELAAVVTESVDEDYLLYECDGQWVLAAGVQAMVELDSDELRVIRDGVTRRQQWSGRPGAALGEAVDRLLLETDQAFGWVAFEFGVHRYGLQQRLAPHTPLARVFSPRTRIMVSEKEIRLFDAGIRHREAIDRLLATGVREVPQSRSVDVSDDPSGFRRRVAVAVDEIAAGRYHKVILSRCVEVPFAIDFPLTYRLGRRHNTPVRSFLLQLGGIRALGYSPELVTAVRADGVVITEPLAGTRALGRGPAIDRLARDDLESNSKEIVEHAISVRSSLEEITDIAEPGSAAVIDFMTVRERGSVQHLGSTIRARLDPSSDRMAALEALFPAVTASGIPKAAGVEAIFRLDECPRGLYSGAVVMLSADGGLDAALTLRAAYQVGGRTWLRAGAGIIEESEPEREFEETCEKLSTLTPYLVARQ

O=C(O)C(=CC1CC1)Oc1cccc(C(=O)O)c1O [cyclopropyl-AMT]
Ki: 12 µM
